Consider two compounds from ChEMBL document CHEMBL1909046, “DrugMatrix in vitro pharmacology data”.

The IC50 is the concentration that gives 50% inhibition. For orientation: Ki means the dissociation constant of the complex between target and ligand, obtained from inhibition or displacement.

Chain of Matrix metalloproteinase-9 (P14780 whole entry): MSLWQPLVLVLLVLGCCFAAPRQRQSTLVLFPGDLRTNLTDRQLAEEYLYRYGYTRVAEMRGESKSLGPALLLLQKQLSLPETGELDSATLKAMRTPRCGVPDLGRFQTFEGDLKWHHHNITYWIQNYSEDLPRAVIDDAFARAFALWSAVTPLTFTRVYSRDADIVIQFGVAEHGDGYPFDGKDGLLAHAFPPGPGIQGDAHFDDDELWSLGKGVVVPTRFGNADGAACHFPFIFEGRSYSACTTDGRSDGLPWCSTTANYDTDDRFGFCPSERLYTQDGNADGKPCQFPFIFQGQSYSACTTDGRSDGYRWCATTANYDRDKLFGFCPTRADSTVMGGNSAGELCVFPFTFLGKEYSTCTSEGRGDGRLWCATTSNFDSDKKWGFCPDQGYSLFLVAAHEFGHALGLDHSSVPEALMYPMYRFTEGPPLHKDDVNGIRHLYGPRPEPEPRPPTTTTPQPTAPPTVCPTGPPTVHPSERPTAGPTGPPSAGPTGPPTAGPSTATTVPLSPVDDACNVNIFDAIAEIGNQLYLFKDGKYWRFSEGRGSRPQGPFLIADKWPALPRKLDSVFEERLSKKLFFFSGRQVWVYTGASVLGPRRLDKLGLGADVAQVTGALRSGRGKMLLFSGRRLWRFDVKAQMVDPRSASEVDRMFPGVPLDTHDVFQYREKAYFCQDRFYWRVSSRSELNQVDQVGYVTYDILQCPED
Chain of Delta-type opioid receptor (P41143 whole entry): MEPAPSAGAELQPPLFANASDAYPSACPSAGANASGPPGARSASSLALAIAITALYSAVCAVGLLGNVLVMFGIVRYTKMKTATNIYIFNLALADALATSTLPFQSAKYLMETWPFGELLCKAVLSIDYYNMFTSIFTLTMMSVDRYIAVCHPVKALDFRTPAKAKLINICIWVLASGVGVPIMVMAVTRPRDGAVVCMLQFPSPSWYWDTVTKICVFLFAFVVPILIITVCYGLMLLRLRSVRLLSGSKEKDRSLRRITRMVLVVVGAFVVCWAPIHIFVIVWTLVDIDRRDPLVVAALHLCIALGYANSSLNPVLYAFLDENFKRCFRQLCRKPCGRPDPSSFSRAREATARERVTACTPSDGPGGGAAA

The first test addresses Delta-type opioid receptor (Homo sapiens, UniProt P41143). It is filed as cell membranes, HEK293, Membrane. Particulars: hek293.
As for `CC(=O)[C@@]1(O)CC[C@H]2[C@@H]3C[C@H](C)C4=CC(=O)C=C[C@]4(C)[C@@]3(F)[C@@H](O)C[C@@]21C` [FLUOROMETHOLONE], the IC50 entry was “Not Active”.

In the case of `C[C@]12CCC(=O)C=C1CC[C@@H]1[C@@H]2C(=O)C[C@@]2(C)[C@H]1CC[C@]2(O)C(=O)CO` [CORTISONE], the IC50 entry is on record as “Not Active”.

For a further test, the target named is Nitric oxide synthase 1 (Rattus norvegicus, UniProt P29476). It is filed as tissue-based, Cerebellum. Further: in other assays of this panel Not Active means under 50% inhibition at 10 µM.
Chain of Nitric oxide synthase 1 (P29476 whole entry): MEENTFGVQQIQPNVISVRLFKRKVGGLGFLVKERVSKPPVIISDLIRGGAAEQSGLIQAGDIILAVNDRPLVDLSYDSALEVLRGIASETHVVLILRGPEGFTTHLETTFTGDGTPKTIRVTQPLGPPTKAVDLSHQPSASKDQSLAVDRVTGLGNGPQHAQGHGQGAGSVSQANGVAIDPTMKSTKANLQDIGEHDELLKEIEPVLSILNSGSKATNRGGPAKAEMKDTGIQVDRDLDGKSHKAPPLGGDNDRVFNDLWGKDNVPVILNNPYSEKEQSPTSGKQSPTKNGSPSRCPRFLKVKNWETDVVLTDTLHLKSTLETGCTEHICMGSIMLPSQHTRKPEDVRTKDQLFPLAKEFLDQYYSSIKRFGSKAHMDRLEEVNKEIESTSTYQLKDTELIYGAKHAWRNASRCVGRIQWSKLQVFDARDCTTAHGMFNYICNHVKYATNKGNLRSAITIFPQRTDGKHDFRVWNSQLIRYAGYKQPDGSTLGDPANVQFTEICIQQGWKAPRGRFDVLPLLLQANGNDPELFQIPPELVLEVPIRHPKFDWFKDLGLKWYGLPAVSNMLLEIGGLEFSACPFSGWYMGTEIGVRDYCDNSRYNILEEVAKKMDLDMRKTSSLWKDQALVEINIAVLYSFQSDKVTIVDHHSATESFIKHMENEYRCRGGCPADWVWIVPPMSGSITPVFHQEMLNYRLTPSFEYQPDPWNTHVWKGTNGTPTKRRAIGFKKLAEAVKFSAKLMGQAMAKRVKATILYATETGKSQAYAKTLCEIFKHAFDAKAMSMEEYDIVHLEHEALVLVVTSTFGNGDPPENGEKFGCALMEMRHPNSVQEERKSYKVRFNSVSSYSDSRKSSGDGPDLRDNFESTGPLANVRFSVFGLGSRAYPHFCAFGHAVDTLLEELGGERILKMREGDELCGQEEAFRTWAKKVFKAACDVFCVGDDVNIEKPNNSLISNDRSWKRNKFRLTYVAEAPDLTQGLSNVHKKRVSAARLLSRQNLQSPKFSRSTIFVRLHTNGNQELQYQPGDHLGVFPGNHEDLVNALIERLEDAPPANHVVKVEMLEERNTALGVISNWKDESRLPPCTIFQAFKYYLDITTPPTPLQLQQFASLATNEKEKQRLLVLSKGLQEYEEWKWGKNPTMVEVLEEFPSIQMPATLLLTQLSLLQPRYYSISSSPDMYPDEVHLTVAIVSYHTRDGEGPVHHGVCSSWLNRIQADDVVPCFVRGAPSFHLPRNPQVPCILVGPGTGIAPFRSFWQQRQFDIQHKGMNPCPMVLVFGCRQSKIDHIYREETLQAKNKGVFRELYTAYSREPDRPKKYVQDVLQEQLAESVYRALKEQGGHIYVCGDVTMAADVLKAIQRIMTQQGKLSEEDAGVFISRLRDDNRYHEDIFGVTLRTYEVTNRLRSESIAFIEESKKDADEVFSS
Conditions: not given
Take `CC(=O)[C@@]1(O)CC[C@H]2[C@@H]3C[C@H](C)C4=CC(=O)C=C[C@]4(C)[C@@]3(F)[C@@H](O)C[C@@]21C` [FLUOROMETHOLONE]: the IC50 entry was “Not Active”.

As for `C[C@]12CCC(=O)C=C1CC[C@@H]1[C@@H]2C(=O)C[C@@]2(C)[C@H]1CC[C@]2(O)C(=O)CO` [CORTISONE], the IC50 entry is reported as “Not Active”.

The target in a further test is T1, Alpha-1A adrenergic receptor (Rattus norvegicus, UniProt P43140).
T1 sequence (P43140 whole entry): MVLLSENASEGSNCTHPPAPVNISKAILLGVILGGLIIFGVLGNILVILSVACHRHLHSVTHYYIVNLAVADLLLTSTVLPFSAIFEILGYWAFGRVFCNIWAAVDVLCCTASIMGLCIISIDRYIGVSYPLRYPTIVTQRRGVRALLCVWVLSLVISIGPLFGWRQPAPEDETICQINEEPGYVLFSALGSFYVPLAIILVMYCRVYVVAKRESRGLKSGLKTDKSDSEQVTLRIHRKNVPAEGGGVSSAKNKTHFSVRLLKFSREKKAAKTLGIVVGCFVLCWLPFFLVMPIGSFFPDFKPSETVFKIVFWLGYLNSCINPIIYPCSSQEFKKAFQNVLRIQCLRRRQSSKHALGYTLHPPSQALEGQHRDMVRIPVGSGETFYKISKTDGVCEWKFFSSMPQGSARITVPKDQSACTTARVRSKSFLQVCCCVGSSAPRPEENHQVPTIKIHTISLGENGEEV
Briefly: DRUGMATRIX: Alpha-1A adrenergic receptor radioligand binding (ligand: prazosin). The format is cell membranes, Wistar, Submaxillary gland, Membrane. The note with it: Not Active = under 50% inhibition at 10 µM.
Regarding `CC(=O)[C@@]1(O)CC[C@H]2[C@@H]3C[C@H](C)C4=CC(=O)C=C[C@]4(C)[C@@]3(F)[C@@H](O)C[C@@]21C` [FLUOROMETHOLONE], the half-maximal inhibitory concentration (IC50) entry is listed as “Not Active”.

Take `C[C@]12CCC(=O)C=C1CC[C@@H]1[C@@H]2C(=O)C[C@@]2(C)[C@H]1CC[C@]2(O)C(=O)CO` [CORTISONE]: the IC50 result was “Not Active”.

Tested on in a further test: not listed separately
Nature of the test: DRUGMATRIX: Serotonin (5-Hydroxytryptamine) 5-HT3 radioligand binding (ligand: [3H] GR-65630). It is filed as cell membranes, Membrane. The note with it: hek293; Not Active = under 50% inhibition at 10 µM.
In the case of `CC(=O)[C@@]1(O)CC[C@H]2[C@@H]3C[C@H](C)C4=CC(=O)C=C[C@]4(C)[C@@]3(F)[C@@H](O)C[C@@]21C` [FLUOROMETHOLONE], the half-maximal inhibitory concentration (IC50) result is “Not Active” and the Ki entry is reported as “Not Active”.

Turning to `C[C@]12CCC(=O)C=C1CC[C@@H]1[C@@H]2C(=O)C[C@@]2(C)[C@H]1CC[C@]2(O)C(=O)CO` [CORTISONE], the IC50 entry is “Not Active” and the Ki result is “Not Active”.

The target of a further test is T2, Progesterone receptor (Bos taurus, UniProt Q690N0).
T2 sequence (Q690N0 whole entry): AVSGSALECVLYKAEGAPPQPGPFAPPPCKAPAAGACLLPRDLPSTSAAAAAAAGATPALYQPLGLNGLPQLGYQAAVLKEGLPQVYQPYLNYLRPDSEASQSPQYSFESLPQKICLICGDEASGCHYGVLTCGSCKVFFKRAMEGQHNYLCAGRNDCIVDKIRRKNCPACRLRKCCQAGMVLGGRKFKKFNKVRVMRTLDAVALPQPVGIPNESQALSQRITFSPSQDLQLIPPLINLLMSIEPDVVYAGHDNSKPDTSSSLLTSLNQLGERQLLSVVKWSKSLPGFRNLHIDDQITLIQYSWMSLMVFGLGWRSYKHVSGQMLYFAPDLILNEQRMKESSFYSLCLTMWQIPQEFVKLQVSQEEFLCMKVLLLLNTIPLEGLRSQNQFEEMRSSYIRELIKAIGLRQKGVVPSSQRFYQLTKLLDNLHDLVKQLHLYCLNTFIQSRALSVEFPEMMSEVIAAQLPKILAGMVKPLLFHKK
Nature of the test: DRUGMATRIX: Progesterone radioligand binding (ligand: [3H] R-5020). The note with it: Not Active = under 50% inhibition at 10 µM. The format is tissue-based, Uterus.
In the case of `C[C@]12CCC(=O)C=C1CC[C@@H]1[C@@H]2C(=O)C[C@@]2(C)[C@H]1CC[C@]2(O)C(=O)CO` [CORTISONE], the IC50 entry is listed as “Not Active”.

The same test, now with this note: Not Active = under 50% inhibition at 10 µM; read-out: IC50.
Turning to `CC(=O)[C@@]1(O)CC[C@H]2[C@@H]3C[C@H](C)C4=CC(=O)C=C[C@]4(C)[C@@]3(F)[C@@H](O)C[C@@]21C` [FLUOROMETHOLONE], the IC50 is 815 nM.

The test is the same for the next values; noted with them: Not Active = under 50% inhibition at 10 µM; read-out: Ki.
With `CC(=O)[C@@]1(O)CC[C@H]2[C@@H]3C[C@H](C)C4=CC(=O)C=C[C@]4(C)[C@@]3(F)[C@@H](O)C[C@@]21C` [FLUOROMETHOLONE], the Ki is 106 nM.

The next test has as its target Matrix metalloproteinase-9 (Homo sapiens, UniProt P14780). It is filed as cell-based.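 Further: inhibition of isolated MMP-9 enzyme activity toward a synthetic peptide substrate, from the DrugMatrix protease screening panel; in other assays of this panel Not Active means under 50% inhibition at 10 µM.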
Conditions: not given
For the compound `CC(=O)[C@@]1(O)CC[C@H]2[C@@H]3C[C@H](C)C4=CC(=O)C=C[C@]4(C)[C@@]3(F)[C@@H](O)C[C@@]21C` [FLUOROMETHOLONE], the IC50 result is “Not Active”.

On to `C[C@]12CCC(=O)C=C1CC[C@@H]1[C@@H]2C(=O)C[C@@]2(C)[C@H]1CC[C@]2(O)C(=O)CO` [CORTISONE], for which the IC50 entry is given as “Not Active”.

For a further test, the target named is Vascular endothelial growth factor receptor 1 (Homo sapiens, UniProt P17948). The format is cell-based. The note with it: huvec. Further: in other assays of this panel Not Active means under 50% inhibition at 10 µM.
Chain of Vascular endothelial growth factor receptor 1 (P17948 whole entry): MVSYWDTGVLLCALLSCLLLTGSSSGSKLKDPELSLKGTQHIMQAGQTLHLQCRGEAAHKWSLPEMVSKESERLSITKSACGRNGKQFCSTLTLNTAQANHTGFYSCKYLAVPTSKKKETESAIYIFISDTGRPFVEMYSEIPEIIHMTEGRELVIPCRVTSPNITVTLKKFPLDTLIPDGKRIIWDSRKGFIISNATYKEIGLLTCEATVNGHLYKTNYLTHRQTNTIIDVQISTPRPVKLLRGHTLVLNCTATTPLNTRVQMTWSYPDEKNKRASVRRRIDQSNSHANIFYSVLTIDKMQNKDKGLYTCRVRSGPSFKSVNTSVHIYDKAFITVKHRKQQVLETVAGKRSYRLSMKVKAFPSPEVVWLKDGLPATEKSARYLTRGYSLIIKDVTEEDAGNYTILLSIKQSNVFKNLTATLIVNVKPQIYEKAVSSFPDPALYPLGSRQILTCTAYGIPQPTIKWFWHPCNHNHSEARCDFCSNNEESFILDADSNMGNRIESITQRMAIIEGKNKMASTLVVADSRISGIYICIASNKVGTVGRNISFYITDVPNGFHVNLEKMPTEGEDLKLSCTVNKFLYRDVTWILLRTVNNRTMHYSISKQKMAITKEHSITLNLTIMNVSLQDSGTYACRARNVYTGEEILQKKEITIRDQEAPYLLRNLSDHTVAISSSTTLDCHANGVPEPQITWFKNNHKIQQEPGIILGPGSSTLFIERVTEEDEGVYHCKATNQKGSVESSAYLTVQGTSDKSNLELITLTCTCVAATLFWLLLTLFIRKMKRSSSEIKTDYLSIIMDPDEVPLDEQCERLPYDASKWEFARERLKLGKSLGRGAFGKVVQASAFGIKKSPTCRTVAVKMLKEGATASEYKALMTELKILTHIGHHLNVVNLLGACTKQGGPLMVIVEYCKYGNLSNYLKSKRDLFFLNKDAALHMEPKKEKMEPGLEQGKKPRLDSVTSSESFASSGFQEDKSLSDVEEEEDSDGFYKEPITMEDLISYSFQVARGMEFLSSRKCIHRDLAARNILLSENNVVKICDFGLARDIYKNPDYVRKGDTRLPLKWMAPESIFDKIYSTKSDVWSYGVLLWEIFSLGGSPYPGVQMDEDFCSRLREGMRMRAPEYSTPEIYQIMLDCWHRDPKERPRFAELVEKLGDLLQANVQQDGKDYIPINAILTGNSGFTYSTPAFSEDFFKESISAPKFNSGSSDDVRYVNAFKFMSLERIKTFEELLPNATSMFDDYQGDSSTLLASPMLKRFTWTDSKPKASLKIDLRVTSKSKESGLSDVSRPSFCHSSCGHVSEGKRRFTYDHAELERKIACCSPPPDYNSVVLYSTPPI
As to `CC(=O)[C@@]1(O)CC[C@H]2[C@@H]3C[C@H](C)C4=CC(=O)C=C[C@]4(C)[C@@]3(F)[C@@H](O)C[C@@]21C` [FLUOROMETHOLONE], the IC50 entry was “Not Active”.

As for `C[C@]12CCC(=O)C=C1CC[C@@H]1[C@@H]2C(=O)C[C@@]2(C)[C@H]1CC[C@]2(O)C(=O)CO` [CORTISONE], the IC50 entry is listed as “Not Active”.

The target in a further test is Sigma non-opioid intracellular receptor 1 (Homo sapiens, UniProt Q99720). Nature of the test: DRUGMATRIX: Sigma1 radioligand binding (ligand: [3H] Haloperidol). It is filed as cell membranes, Jurkat, Membrane. Particulars: jurkat; Not Active = under 50% inhibition at 10 µM.
`CC(=O)[C@@]1(O)CC[C@H]2[C@@H]3C[C@H](C)C4=CC(=O)C=C[C@]4(C)[C@@]3(F)[C@@H](O)C[C@@]21C` [FLUOROMETHOLONE]: the IC50 entry is “Not Active”.

For `C[C@]12CCC(=O)C=C1CC[C@@H]1[C@@H]2C(=O)C[C@@]2(C)[C@H]1CC[C@]2(O)C(=O)CO` [CORTISONE], the concentration for half-maximal inhibition (IC50) result is “Not Active”.

For a further test, the target named is T3, Muscarinic acetylcholine receptor M4 (Homo sapiens, UniProt P08173). Further: in other assays of this panel Not Active means under 50% inhibition at 10 µM.
T3 sequence (P08173 whole entry): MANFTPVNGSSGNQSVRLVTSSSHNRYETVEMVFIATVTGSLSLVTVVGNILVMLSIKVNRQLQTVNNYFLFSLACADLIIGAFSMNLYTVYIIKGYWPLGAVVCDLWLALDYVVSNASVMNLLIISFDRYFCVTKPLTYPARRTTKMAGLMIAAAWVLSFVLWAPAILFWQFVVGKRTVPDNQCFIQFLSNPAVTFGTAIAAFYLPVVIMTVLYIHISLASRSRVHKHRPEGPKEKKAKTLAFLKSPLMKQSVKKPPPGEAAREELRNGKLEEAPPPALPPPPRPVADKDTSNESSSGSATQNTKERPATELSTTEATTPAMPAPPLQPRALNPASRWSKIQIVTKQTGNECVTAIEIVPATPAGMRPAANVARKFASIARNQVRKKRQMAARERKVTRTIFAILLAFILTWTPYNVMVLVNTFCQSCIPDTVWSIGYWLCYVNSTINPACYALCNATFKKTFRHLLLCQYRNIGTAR
The format is cell membranes, CHO-K1, Membrane. The note with it: cho-k1.
On to `CC(=O)[C@@]1(O)CC[C@H]2[C@@H]3C[C@H](C)C4=CC(=O)C=C[C@]4(C)[C@@]3(F)[C@@H](O)C[C@@]21C` [FLUOROMETHOLONE], for which the IC50 result is “Not Active”.

For `C[C@]12CCC(=O)C=C1CC[C@@H]1[C@@H]2C(=O)C[C@@]2(C)[C@H]1CC[C@]2(O)C(=O)CO` [CORTISONE], the IC50 entry is on record as “Not Active”.

The next test concerns the target Protein kinase C alpha type (Homo sapiens, UniProt P17252). It is filed as cell-based. The note with it: sf9.
`CC(=O)[C@@]1(O)CC[C@H]2[C@@H]3C[C@H](C)C4=CC(=O)C=C[C@]4(C)[C@@]3(F)[C@@H](O)C[C@@]21C` [FLUOROMETHOLONE]: the IC50 result is “Not Active”.

On to `C[C@]12CCC(=O)C=C1CC[C@@H]1[C@@H]2C(=O)C[C@@]2(C)[C@H]1CC[C@]2(O)C(=O)CO` [CORTISONE], for which the IC50 entry was “Not Active”.

In the next test the target is T4, B2 bradykinin receptor (Homo sapiens, UniProt P30411). Further: in other assays of this panel Not Active means under 50% inhibition at 10 µM.
T4 sequence (P30411 whole entry): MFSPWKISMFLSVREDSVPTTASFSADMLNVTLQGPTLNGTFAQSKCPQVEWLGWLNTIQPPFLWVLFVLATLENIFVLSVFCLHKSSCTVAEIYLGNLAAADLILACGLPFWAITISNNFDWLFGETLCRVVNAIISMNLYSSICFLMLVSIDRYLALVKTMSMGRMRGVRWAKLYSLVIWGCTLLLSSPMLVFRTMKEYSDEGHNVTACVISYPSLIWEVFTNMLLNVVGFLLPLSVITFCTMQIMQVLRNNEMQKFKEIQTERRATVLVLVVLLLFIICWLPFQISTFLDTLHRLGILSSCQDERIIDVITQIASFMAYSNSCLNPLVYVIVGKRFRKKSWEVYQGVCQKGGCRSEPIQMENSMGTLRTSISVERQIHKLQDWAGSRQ
It is filed as cell membranes, Membrane. Particulars: chem-1.
As to `CC(=O)[C@@]1(O)CC[C@H]2[C@@H]3C[C@H](C)C4=CC(=O)C=C[C@]4(C)[C@@]3(F)[C@@H](O)C[C@@]21C` [FLUOROMETHOLONE], the IC50 result is listed as “Not Active”.

For the compound `C[C@]12CCC(=O)C=C1CC[C@@H]1[C@@H]2C(=O)C[C@@]2(C)[C@H]1CC[C@]2(O)C(=O)CO` [CORTISONE], the IC50 result is “Not Active”.

The target of the next test is Mitogen-activated protein kinase 14 (Homo sapiens, UniProt Q16539). Details: species or system Escherichia coli.
Chain of Mitogen-activated protein kinase 14 (Q16539 whole entry): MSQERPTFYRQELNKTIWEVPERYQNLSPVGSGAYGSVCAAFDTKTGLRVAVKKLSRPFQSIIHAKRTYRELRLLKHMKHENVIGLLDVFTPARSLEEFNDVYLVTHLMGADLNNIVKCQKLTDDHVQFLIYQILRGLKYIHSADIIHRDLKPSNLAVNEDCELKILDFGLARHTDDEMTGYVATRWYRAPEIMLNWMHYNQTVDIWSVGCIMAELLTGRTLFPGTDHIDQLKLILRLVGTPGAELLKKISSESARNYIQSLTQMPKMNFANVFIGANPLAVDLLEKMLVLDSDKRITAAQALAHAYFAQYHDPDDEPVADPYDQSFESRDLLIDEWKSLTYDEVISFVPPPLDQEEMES
Conditions: not given
As to `CC(=O)[C@@]1(O)CC[C@H]2[C@@H]3C[C@H](C)C4=CC(=O)C=C[C@]4(C)[C@@]3(F)[C@@H](O)C[C@@]21C` [FLUOROMETHOLONE], the IC50 entry was “Not Active”.

Consider `C[C@]12CCC(=O)C=C1CC[C@@H]1[C@@H]2C(=O)C[C@@]2(C)[C@H]1CC[C@]2(O)C(=O)CO` [CORTISONE], for which the IC50 result is listed as “Not Active”.
